Measurements from patent US20220089598A1, “INHIBITORS OF HUMAN IMMUNODEFICIENCY VIRUS REPLICATION” (VIIV HEALTHCARE UK (No. 5) LIMITED, priority 2018, published 2022).

Tests used:
[1] = Compound cytotoxicity, XTT-based colorimetric assay; assay type: cell-based; conditions: human; uninfected MT2 cells, day 4, XTT assay
Method: Compound cytotoxicity and the corresponding CC50 values were determined using the same protocol as described in the antiviral assay except that uninfected cells were used. Cytotoxicity was assessed on day 4 in uninfected MT2 cells by using a XTT (2,3-bis[2-Methoxy-4-nitro-5-sulfophenyl]-2H-tetrazolium-5-carboxyanilide inner salt)-based colorimetric assay (Sigma-Aldrich, St Louis, Mo.).

[2] = tested on: recombinant NL4-3 virus (Renilla luciferase) in MT-2 cells; experiment: HIV cell culture assay (antiviral activity, luciferase readout); assay type: cell-based; conditions: Renilla, NL43
Method: HIV cell culture assay—MT-2 cells, 293T cells and the proviral DNA clone of NL4-3 virus were obtained from the NIH AIDS Research and Reference Reagent Program. MT-2 cells were propagated in RPMI 1640 media supplemented with 10% heat inactivated fetal bovine serum (FBS), 100 μg/ml penicillin G and up to 100 units/mL streptomycin. The 293T cells were propagated in DMEM media supplemented with 10% heat inactivated FBS, 100 μg/mL penicillin G and 100 μg/mL streptomycin. A recombinant NL4-3 proviral clone, in which a section of the nef gene was replaced with the Renilla luciferase gene, was used to make the reference virus used in these studies. The recombinant virus was prepared through transfection of the recombinant NL4-3 proviral clone into 293T cells using Transit-293 Transfection Reagent from Mirus Bio LLC (Madison, Wis.). Supernatent was harvested after 2-3 days and the amount of virus present was titered in MT-2 cells using luciferase enzyme activity as a marker by measuring luciferase enzyme activity. Luciferase was quantitated using the EnduRen Live Cell Substrate from Promega (Madison, Wis.). Antiviral activities of compounds toward the recombinant virus were quantified by measuring luciferase activity in MT-2 cells infected for 4-5 days with the recombinant virus in the presence of serial dilutions of the compound.
The 50% effective concentration (EC50) was calculated by using the exponential form of the median effect equation where (Fa)=1/[1+(ED50/drug conc.)m] (Johnson V A, Byington R T. Infectivity Assay. In Techniques in HIV Research. ed. Aldovini A, Walker B D. 71-76. New York: Stockton Press. 1990).

Structure (SMILES)	CC50 at 4 day [1]	EC50 [2]
Cn1nc(NS(C)(=O)=O)c2c(Cl)ccc(-n3c([C@H](Cc4cc(F)cc(F)c4)NC(=O)Cn4nc(C(F)(F)F)c5c4C(F)(F)[C@@H]4C[C@H]54)nc4nc(-c5ccccc5F)ccc4c3=O)c21 (atropisomer, axis not shown; (P)) [Example 17, N—((S)-1-((3P)-3-(4-chloro-1-methyl-3-(methylsulfonamido)-1H-indazol-7-yl)-7-(2-fluorophenyl)-4-oxo-3,4-dihydropyrido[2,3-d]pyrimidin-2-yl)-2-(3,5-difluorophenyl)ethyl)-2-((3bS,4aR)-5,5-difluoro-3-(trifluoromethyl)-3b,4,4a,5-tetrahydro-1H-cyclopropa[3,4]cyclopenta[1,2-c]pyrazol-1-yl)acetamide]	> 100 nM	0.065 nM
Cn1nc(NS(C)(=O)=O)c2c(Cl)ccc(-n3c([C@H](Cc4cc(F)cc(F)c4)NC(=O)Cn4nc(C(F)F)c5c4C(F)(F)[C@@H]4C[C@H]54)nc4nc(-c5ccc(F)cc5CO)ccc4c3=O)c21 (atropisomer, axis not shown; (P)) [Example 16, N—((S)-1-((3P)-3-(4-chloro-1-methyl-3-(methylsulfonamido)-1H-indazol-7-yl)-7-(4-fluoro-2-(hydroxymethyl)phenyl)-4-oxo-3,4-dihydropyrido[2,3-d]pyrimidin-2-yl)-2-(3,5-difluorophenyl)ethyl)-2-((3bS,4aR)-3-(difluoromethyl)-5,5-difluoro-3b,4,4a,5-tetrahydro-1H-cyclopropa[3,4]cyclopenta[1,2-c]pyrazol-1-yl)acetamide]	> 500 nM	0.056 nM
Cn1nc(NS(C)(=O)=O)c2c(Cl)ccc(-n3c([C@H](Cc4cc(F)cc(F)c4)NC(=O)Cn4nc(C(F)F)c5c4C(F)(F)[C@@H]4C[C@H]54)nc4nc(-c5cc(F)ccc5F)ccc4c3=O)c21 (atropisomer, axis not shown; (P)) [Example 9, N—((S)-1-((3P)-3-(4-chloro-1-methyl-3-(methylsulfonamido)-1H-indazol-7-yl)-7-(2,5-difluorophenyl)-4-oxo-3,4-dihydropyrido[2,3-d]pyrimidin-2-yl)-2-(3,5-difluorophenyl)ethyl)-2-((3bS,4aR)-3-(difluoromethyl)-5,5-difluoro-3b,4,4a,5-tetrahydro-1H-cyclopropa[3,4]cyclopenta[1,2-c]pyrazol-1-yl)acetamide]	> 500 nM	0.12 nM
Cn1nc(NS(C)(=O)=O)c2c(Cl)ccc(-n3c([C@H](Cc4cc(F)cc(F)c4)NC(=O)Cn4nc(C(F)F)c5c4C(F)(F)[C@@H]4C[C@H]54)nc4cc(-c5ccc(F)cc5F)cnc4c3=O)c21 (atropisomer, axis not shown; (P)) [Example 37, N—((S)-1-((3P)-3-(4-chloro-1-methyl-3-(methylsulfonamido)-1H-indazol-7-yl)-7-(2,4-difluorophenyl)-4-oxo-3,4-dihydropyrido[3,2-d]pyrimidin-2-yl)-2-(3,5-difluorophenyl)ethyl)-2-((3bS,4aR)-3-(difluoromethyl)-5,5-difluoro-3b,4,4a,5-tetrahydro-1H-cyclopropa[3,4]cyclopenta[1,2-c]pyrazol-1-yl)acetamide]	> 500 nM	2 nM
COc1nc2nc([C@H](Cc3cc(F)cc(F)c3)NC(=O)Cn3nc(C(F)(F)F)c4c3C(F)(F)[C@@H]3C[C@H]43)n(-c3ccc(Cl)c4c(NS(C)(=O)=O)nn(C)c34)c(=O)c2cc1-c1ccccc1F (atropisomer, axis not shown; (P)) [Example 31, N—((S)-1-((3P)-3-(4-chloro-1-methyl-3-(methylsulfonamido)-1H-indazol-7-yl)-6-(2-fluorophenyl)-7-methoxy-4-oxo-3,4-dihydropyrido[2,3-d]pyrimidin-2-yl)-2-(3,5-difluorophenyl)ethyl)-2-((3bS,4aR)-5,5-difluoro-3-(trifluoromethyl)-3b,4,4a,5-tetrahydro-1H-cyclopropa[3,4]cyclopenta[1,2-c]pyrazol-1-yl)acetamide]	> 500 nM	0.16 nM
O=C(Cn1nc(C(F)(F)F)c2c1C(F)(F)[C@@H]1C[C@H]21)N[C@@H](Cc1cc(F)cc(F)c1)c1nc2nc(-c3ccccc3F)ccc2c(=O)n1-c1ccc(Cl)c2c(NS(=O)(=O)C3CC3)nn(CC(F)F)c12 (atropisomer, axis not shown; (P)) [Example 7, N—((S)-1-((3P)-3-(4-chloro-3-(cyclopropanesulfonamido)-1-(2,2-difluoroethyl)-1H-indazol-7-yl)-7-(2-fluorophenyl)-4-oxo-3,4-dihydropyrido[2,3-d]pyrimidin-2-yl)-2-(3,5-difluorophenyl)ethyl)-2-((3bS,4aR)-5,5-difluoro-3-(trifluoromethyl)-3b,4,4a,5-tetrahydro-1H-cyclopropa[3,4]cyclopenta[1,2-c]pyrazol-1-yl)acetamide]	> 100 nM	0.056 nM
Cn1nc(NS(C)(=O)=O)c2c(Cl)ccc(-n3c([C@H](Cc4cc(F)cc(F)c4)NC(=O)Cn4nc(C(F)F)c5c4C(F)(F)[C@@H]4C[C@H]54)nc4nc(-c5c(F)cccc5F)ccc4c3=O)c21 (atropisomer, axis not shown; (P)) [Example 3, N—((S)-1-((3P)-3-(4-chloro-1-methyl-3-(methylsulfonamido)-1H-indazol-7-yl)-7-(2,6-difluorophenyl)-4-oxo-3,4-dihydropyrido[2,3-d]pyrimidin-2-yl)-2-(3,5-difluorophenyl)ethyl)-2-((3bS,4aR)-3-(difluoromethyl)-5,5-difluoro-3b,4,4a,5-tetrahydro-1H-cyclopropa[3,4]cyclopenta[1,2-c]pyrazol-1-yl)acetamide]	> 100 nM	0.11 nM
Cn1nc(NS(C)(=O)=O)c2c(Cl)ccc(-n3c([C@H](Cc4cc(F)cc(F)c4)NC(=O)Cn4nc(C(F)F)c5c4C(F)(F)[C@@H]4C[C@H]54)nc4nc(-c5cc(Cl)c(F)cc5F)ccc4c3=O)c21 (atropisomer, axis not shown; (P)) [Example 6, N—((S)-1-((3P)-3-(4-chloro-1-methyl-3-(methylsulfonamido)-1H-indazol-7-yl)-7-(5-chloro-2,4-difluorophenyl)-4-oxo-3,4-dihydropyrido[2,3-d]pyrimidin-2-yl)-2-(3,5-difluorophenyl)ethyl)-2-((3bS,4aR)-3-(difluoromethyl)-5,5-difluoro-3b,4,4a,5-tetrahydro-1H-cyclopropa[3,4]cyclopenta[1,2-c]pyrazol-1-yl)acetamide]	> 100 nM	0.192 nM
Cn1nc(NS(C)(=O)=O)c2c(Cl)ccc(-n3c([C@H](Cc4cc(F)cc(F)c4)NC(=O)Cn4nc(C(F)F)c5c4C(F)(F)[C@@H]4C[C@H]54)nc4nc(-c5c(F)cc(F)cc5F)ccc4c3=O)c21 (atropisomer, axis not shown; (P)) [Example 28, N—((S)-1-((3P)-3-(4-chloro-1-methyl-3-(methylsulfonamido)-1H-indazol-7-yl)-4-oxo-7-(2,4,6-trifluorophenyl)-3,4-dihydropyrido[2,3-d]pyrimidin-2-yl)-2-(3,5-difluorophenyl)ethyl)-2-((3bS,4aR)-3-(difluoromethyl)-5,5-difluoro-3b,4,4a,5-tetrahydro-1H-cyclopropa[3,4]cyclopenta[1,2-c]pyrazol-1-yl)acetamide]	> 100 nM	0.032 nM
COc1nc2nc([C@H](Cc3cc(F)cc(F)c3)NC(=O)Cn3nc(C(F)F)c4c3C(F)(F)[C@@H]3C[C@H]43)n(-c3ccc(Cl)c4c(NS(C)(=O)=O)nn(C)c34)c(=O)c2cc1-c1ccccc1F (atropisomer, axis not shown; (P)) [Example 2, N—((S)-1-((3P)-3-(4-chloro-1-methyl-3-(methylsulfonamido)-1H-indazol-7-yl)-6-(2-fluorophenyl)-7-methoxy-4-oxo-3,4-dihydropyrido[2,3-d]pyrimidin-2-yl)-2-(3,5-difluorophenyl)ethyl)-2-((3bS,4aR)-3-(difluoromethyl)-5,5-difluoro-3b,4,4a,5-tetrahydro-1H-cyclopropa[3,4]cyclopenta[1,2-c]pyrazol-1-yl)acetamide]	> 1000 nM	0.25 nM
Cn1nc(NS(C)(=O)=O)c2c(Cl)ccc(-n3c([C@H](Cc4cc(F)cc(F)c4)NC(=O)Cn4nc(C(F)F)c5c4C(F)(F)[C@@H]4C[C@H]54)nc4nc(-c5cc(F)cc(F)c5)ccc4c3=O)c21 (atropisomer, axis not shown; (P)) [Example 21, N—((S)-1-((3P)-3-(4-chloro-1-methyl-3-(methylsulfonamido)-1H-indazol-7-yl)-7-(3,5-difluorophenyl)-4-oxo-3,4-dihydropyrido[2,3-d]pyrimidin-2-yl)-2-(3,5-difluorophenyl)ethyl)-2-((3bS,4aR)-3-(difluoromethyl)-5,5-difluoro-3b,4,4a,5-tetrahydro-1H-cyclopropa[3,4]cyclopenta[1,2-c]pyrazol-1-yl)acetamide]	> 100 nM	0.08 nM
